Measured values published in US20240270821A1, “GIP/GLP1/GCG TRI-RECEPTOR AGONISTS AND USES THEREOF” (priority 2023, published 2024).
Starred links: 1 amine or outer side, 2 acyl side, 3 side chain; linkers in the order of their positions; H or OH if unused. Non-standard residues stand in square brackets, D forms with d. Groups on a side chain read outwards from the residue. *: point of attachment. C18 diacid = O=C(O)CCCCCCCCCCCCCCCCC(=O)*; γGlu = O=C(O)[C@H](CCC(=O)[*:2])N[*:1]; αMe4Pal = C[C@](N)(Cc1ccncc1)C(=O)O; αMeY = C[C@](N)(Cc1ccc(O)cc1)C(=O)O; 4Pal = N[C@@H](Cc1ccncc1)C(=O)O; αMeL = CC(C)C[C@](C)(N)C(=O)O; Orn = NCCC[C@H](N)C(=O)O; AEEA = NCCOCCOCC(=O)O; Aib = CC(C)(N)C(=O)O

Columns and labels:
Format in all cases: cell-based
hGIPR [1] = molecular target: T1, hGIPR (Homo sapiens, UniProt P48546); assay: Functional cAMP activation in the presence of 0.1% casein (no HSA); conditions: in the presence of 0.1% casein (no HSA); geometric mean; read-out: Relative cAMP EC50, hGIPR;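 note: intracellular cAMP rise after 30 min at 37 °C read by HTRF against a standard curve, scaled between buffer alone (0%) and top control ligand concentration (100%), four-parameter fit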
T1 sequence (P48546 22-466): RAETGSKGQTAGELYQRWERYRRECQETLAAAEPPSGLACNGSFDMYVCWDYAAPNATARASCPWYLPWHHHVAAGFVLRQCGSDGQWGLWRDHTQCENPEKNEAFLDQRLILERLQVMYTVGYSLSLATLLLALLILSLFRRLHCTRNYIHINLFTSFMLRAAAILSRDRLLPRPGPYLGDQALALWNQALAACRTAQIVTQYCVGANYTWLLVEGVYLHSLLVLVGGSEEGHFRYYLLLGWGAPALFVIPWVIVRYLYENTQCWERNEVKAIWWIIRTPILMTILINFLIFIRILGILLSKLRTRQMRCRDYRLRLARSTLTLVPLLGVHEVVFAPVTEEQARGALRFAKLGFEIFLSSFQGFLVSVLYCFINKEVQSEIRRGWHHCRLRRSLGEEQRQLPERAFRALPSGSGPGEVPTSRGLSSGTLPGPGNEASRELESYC

hGLP-1R [2] = molecular target: T2, hGLP-1R (Homo sapiens, UniProt P43220); assay: Functional cAMP activity in the presence of 1% HSA; conditions: read-out: cAMP Rel EC50, hGLP-1R
T2 sequence (P43220 24-463): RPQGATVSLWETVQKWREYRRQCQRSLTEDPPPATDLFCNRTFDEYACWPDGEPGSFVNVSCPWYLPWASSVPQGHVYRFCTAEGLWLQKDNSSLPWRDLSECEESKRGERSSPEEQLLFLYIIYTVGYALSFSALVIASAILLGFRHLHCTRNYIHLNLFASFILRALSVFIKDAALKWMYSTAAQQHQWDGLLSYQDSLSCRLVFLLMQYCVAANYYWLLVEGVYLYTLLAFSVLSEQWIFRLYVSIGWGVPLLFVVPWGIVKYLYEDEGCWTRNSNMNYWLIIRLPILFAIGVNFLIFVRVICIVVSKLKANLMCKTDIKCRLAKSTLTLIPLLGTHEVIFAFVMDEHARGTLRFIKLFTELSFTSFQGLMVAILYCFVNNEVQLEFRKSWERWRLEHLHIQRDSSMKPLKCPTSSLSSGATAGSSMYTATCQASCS

hGIPR [3] = molecular target: T1, hGIPR; assay: Functional cAMP activity in the presence of 1% HSA; conditions: read-out: cAMP Rel EC50, hGIPR
human GcgR = human GcgR (Homo sapiens, UniProt P47871); assay: Functional cAMP activity in the presence of 1% HSA; conditions: read-out: cAMP Rel EC50, hGcgR
Chain of human GcgR (P47871 26-477): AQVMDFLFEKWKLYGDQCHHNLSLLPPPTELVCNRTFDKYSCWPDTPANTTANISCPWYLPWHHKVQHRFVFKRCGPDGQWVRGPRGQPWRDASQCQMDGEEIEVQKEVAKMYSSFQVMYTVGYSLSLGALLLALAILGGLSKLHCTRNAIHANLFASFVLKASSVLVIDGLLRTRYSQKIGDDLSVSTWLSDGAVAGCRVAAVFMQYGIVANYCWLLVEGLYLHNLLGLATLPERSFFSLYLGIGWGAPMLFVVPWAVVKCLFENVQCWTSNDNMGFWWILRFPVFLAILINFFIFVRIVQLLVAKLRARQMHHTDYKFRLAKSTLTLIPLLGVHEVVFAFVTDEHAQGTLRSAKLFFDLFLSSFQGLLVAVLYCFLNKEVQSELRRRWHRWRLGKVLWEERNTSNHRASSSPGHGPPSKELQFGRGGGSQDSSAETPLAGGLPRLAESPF

hGLP-1R [4] = molecular target: T2, hGLP-1R; assay: Functional cAMP activation in the presence of 0.1% casein (no HSA); conditions: in the presence of 0.1% casein (no HSA); geometric mean; read-out: Relative cAMP EC50, hGLP-1R;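 for Relative cAMP EC50, hGLP-1R: intracellular cAMP rise after 30 min at 37 °C read by HTRF, normalized between buffer only (0%) and maximal control ligand (100%), four-parameter variable-slope fit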;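 for Relative cAMP EC50, hGcgR: intracellular cAMP rise after 30 min at 37 °C, read by HTRF against a cAMP standard curve, scaled from buffer only (0%) to maximal control ligand response (100%)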
hGcgR = hGcgR (Homo sapiens, UniProt P47871); assay: as above; conditions: in the presence of 0.1% casein (no HSA); geometric mean; read-out: Relative cAMP EC50, hGcgR;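 note: intracellular cAMP rise after 30 min at 37 °C, read by HTRF against a cAMP standard curve, scaled from buffer only (0%) to maximal control ligand response (100%)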
Chain of hGcgR (P47871 26-477): as above

Substance | EC50 (hGIPR [1]) [nM] | EC50 (hGLP-1R [2]) [nM] | EC50 (hGIPR [3]) [nM] | EC50 (human GcgR) [nM] | EC50 (hGLP-1R [4]) [nM] | EC50 (hGcgR) [nM]
H-Y[Aib]QGTFTSD[4Pal]SQ[αMeL]LDKK([γGlu-γGlu-C18 diacid])AQ[αMe4Pal]AFIE[αMe4Pal]LIE[Aib]GPSSGEPPPSGSEE-NH2 [Example 1125] | 0.173 | 243 | 3.95 | 264 | 8.26 | 5.83
H-Y[Aib]QGTFTSD[4Pal]SQ[αMeL]LDKK([γGlu-γGlu-C18 diacid])AQ[αMe4Pal]QFIE[αMeY]LIEGGPSSGAPPPSGS-NH2 [Example 934] | 0.0738 | 175 | 28.1 | 1380 | 0.649 | 2.73
H-Y[Aib]QGTFTSD[4Pal]SQ[αMeL]LDKK([γGlu-γGlu-γGlu-C18 diacid])AQ[αMe4Pal]AFIEYLIE[Aib]GPSSGAPPPSGS-NH2 [Example 859] | 0.12 | 543 | 32.3 | 2250 | 2.38 | 8.45
H-Y[Aib]QGTFTSD[4Pal]SQ[αMeL]LD[Orn]K([AEEA-γGlu-C18 diacid])AQ[Aib]AFIE[αMeY]LIEGGPSSGAPPPSGS-NH2 [Example 850] | 0.346 | 57.8 | 27 | 3660 | 0.451 | 28.4
H-Y[Aib]QGTFTSD[4Pal]SQ[αMeL]LD[Orn]K([AEEA-γGlu-C18 diacid])AQ[Aib]AFIE[αMeY]LLEGGPSSGAPPPSGS-NH2 [Example 911] | 0.197 | 255 | 26.6 | 2390 | 1.09 | 9.53
H-Y[Aib]QGTFTSD[4Pal]SQ[αMeL]LD[Orn]K([AEEA-γGlu-C18 diacid])AQ[αMe4Pal]AFIEYLIA[Aib]GPSSGEPPPSGSEE-NH2 [Example 1095] | 0.065 | 159 | 8.73 | 337 | 1.17 | 2.75
H-Y[Aib]QGTFTSD[4Pal]SQ[αMeL]LD[Orn]K([AEEA-γGlu-C18 diacid])AQ[αMe4Pal]AFIEYLIQ[Aib]GPSSGEPPPSGSEE-NH2 [Example 1096] | 0.0799 | 194 | 11.6 | 397 | 1.47 | 3.94
H-Y[Aib]QGTFTSD[4Pal]SQ[αMeL]LD[Orn]K([AEEA-γGlu-C18 diacid])AQ[αMe4Pal]AFIE[αMeY]LIA[Aib]GPSSGAPPPSGSEE-NH2 [Example 1110] | 0.059 | 52 | 5.4 | 449 | 0.508 | 5.91
H-Y[Aib]QGTFTSD[4Pal]SQ[αMeL]LD[Orn]K([AEEA-γGlu-C18 diacid])AQ[αMe4Pal]AFIE[αMeY]LIA[Aib]GPSSGEPPPSGSEE-NH2 [Example 1099] | 0.076 | 75.8 | 8.64 | 472 | 0.73 | 3.47
H-Y[Aib]QGTFTSD[4Pal]SQ[αMeL]LD[Orn]K([AEEA-γGlu-C18 diacid])AQ[αMe4Pal]AFIE[αMeY]LIEGGPSSGAPPPSGS-NH2 [Example 849] | 0.306 | 111 | 36.6 | 1160 | 0.661 | 6.66
H-Y[Aib]QGTFTSD[4Pal]SQ[αMeL]LD[Orn]K([AEEA-γGlu-C18 diacid])AQ[αMe4Pal]AFIE[αMeY]LIEGGPSSGAPPPSGSEE-NH2 [Example 1041] | 0.365 | 316 | 75.7 | 1720 | 1.24 | 7.71
H-Y[Aib]QGTFTSD[4Pal]SQ[αMeL]LD[Orn]K([AEEA-γGlu-C18 diacid])AQ[αMe4Pal]AFIE[αMeY]LIE[Aib]GPSSGAPPPSGSEE-NH2 [Example 1108] | 0.0507 | 76.2 | 5.22 | 468 | 0.752 | 4.96
H-Y[Aib]QGTFTSD[4Pal]SQ[αMeL]LD[Orn]K([AEEA-γGlu-C18 diacid])AQ[αMe4Pal]AFIE[αMeY]LIE[Aib]GPSSGEPPPSGSEE-NH2 [Example 1097] | 0.136 | 141 | 27.3 | 752 | 1.59 | 6.16
